“And” between values parts separate entries of the source, which are not always exact repeats. Equal entries are not always repeated.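 Five compound concentrations were applied to cells in 96-well plates for 48 hours; endpoints were derived by simple linear interpolation of the resulting dose-response curve. GI50: concentration for 50% inhibition of growth. Definition used: TGI = concentration required for complete inhibition of growth.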
How the values were obtained:
Assay in all cases: NCI-60 cell line screen, 48 h
SN12C renal = tested on: SN12C renal
OVCAR-4 ovarian = tested on: OVCAR-4 ovarian
COLO 205 colon = tested on: COLO 205 colon
NCI-H226 lung = tested on: NCI-H226 lung
HCC-2998 colon = tested on: HCC-2998 colon
HS 578T breast = tested on: HS 578T breast
CCRF-CEM leukemia = tested on: CCRF-CEM leukemia
OVCAR-8 ovarian = tested on: OVCAR-8 ovarian
M14 melanoma = tested on: M14 melanoma
ACHN renal = tested on: ACHN renal

| Compound | GI50 (SN12C renal) [µM] | TGI (SN12C renal) [µM] | GI50 (OVCAR-4 ovarian) [µM] | TGI (OVCAR-4 ovarian) [µM] | GI50 (COLO 205 colon) [µM] | TGI (COLO 205 colon) [µM] | GI50 (NCI-H226 lung) [µM] | TGI (NCI-H226 lung) [µM] | GI50 (HCC-2998 colon) [µM] | TGI (HCC-2998 colon) [µM] | GI50 (HS 578T breast) [µM] | TGI (HS 578T breast) [µM] | GI50 (CCRF-CEM leukemia) [µM] | TGI (CCRF-CEM leukemia) | GI50 (OVCAR-8 ovarian) [µM] | TGI (OVCAR-8 ovarian) [µM] | GI50 (M14 melanoma) [µM] | TGI (M14 melanoma) [µM] | GI50 (ACHN renal) [µM] | TGI (ACHN renal) [µM] |
| --- | --- | --- | --- | --- | --- | --- | --- | --- | --- | --- | --- | --- | --- | --- | --- | --- | --- | --- | --- | --- |
| CC(C)c1[nH]nc2c(NCc3ccc(-c4ccccn4)cc3)nc(SCCN(C)C)nc12 | < 0.0199 | 12.3 | 0.0349 | 1.53 | < 0.015 | 0.0297 | 0.24 | 0.706 | < 0.0185 | 0.844 | 0.0271 | 9.4 | 0.0246 | 4.87 µM | 0.0416 | 15.5 | < 0.0133 | 0.122 | 0.0864 | 4.96 |
| COC(=O)c1ccc(NC(=O)c2ccc(NC3=C(Cl)C(=O)N(Cc4ccccc4)C3=O)cc2)cc1 | 8.13 | 21.7 | 27 | 60.9 | 37 | > 100 | 22 | 40.6 | – | – | 35.9 | > 100 | – | – | 11 | 24.7 | 17.1 | 30.8 | 17.2 | 31 |
| CN(CCCN1C(=O)c2cccc3cc([N+](=O)[O-])cc(c23)C1=O)CCN(C)CCCN1C(=O)c2cccc3cc([N+](=O)[O-])cc(c23)C1=O | – | > 39.3 | – | > 39.3 | – | > 39.3 | – | > 39.3 | – | > 39.3 | – | – | – | > 39.3 µM | – | > 39.3 | – | > 39.3 | – | > 39.3 |
| CCCCCCCCC(C)CCCCCCCCC(=O)OCC(COP(=O)([O-])OCC[N+](C)(C)C)OC(=O)CCCCCCCCC(C)CCCCCCCC (stereo unspecified) | – | > 100 | – | > 100 | – | > 100 | – | > 100 | – | > 100 | – | – | – | > 100 µM | – | > 100 | – | > 100 | – | > 100 |
| CN(C)C(=S)/N=c1\ssc(=S)n1Cc1ccco1 | – | > 100 | – | 66.8 | – | > 100 | – | > 100 | – | > 100 | – | – | – | 42.3 µM | – | > 100 | – | > 100 | – | > 100 |
| C[C@@H](CS[As](C)C)C(=O)N1CCC[C@H]1C(=O)O | 0.2 | 1.03 | 1.3 | – | 0.156 | – | 0.364 | 1.65 | – | – | 0.255 | 0.796 | 0.142 | 0.643 µM | 0.299 | – | 0.105 | 0.829 | 0.113 | 1.2 |
| O=C1C(Cl)=C(Nc2cc(Cl)ccc2O)C(=O)N1Cc1ccccc1 | 19.5 | 34.4 | 17.2 | 38.1 | 18.3 | 44.3 | 8.66 | 21.9 | – | – | 21.7 | 49.6 | 12.5 | 54.9 µM | 17.5 | 36.4 | 17.1 | 33.3 | 17.2 | 31.9 |
| Cc1c(NC(=O)Nc2c(Cl)cccc2Cl)c(=O)n(-c2ccccc2)n1C | – | > 100 | – | > 100 | – | > 100 | – | > 100 | – | – | – | > 100 | – | > 100 µM | – | > 100 | – | > 100 | – | > 100 |
| CC(=O)CCc1ccc(Oc2c3c(nc4ccccc24)OCC3)cc1 | – | – | > 100 | > 100 | > 100 | > 100 | 12.3 | 78.8 | 32.5 | 91.8 | 71.4 | > 100 | > 100 | > 100 µM | 3.76 | > 100 | > 100 | > 100 | 53.9 | > 100 |
| CCCCCN(CCCCC)C(=O)[C@H](CCC(=O)O)NC(=O)c1cc2ccccc2[nH]1 | – | > 100 | – | > 100 | – | > 100 | – | > 100 | – | > 100 | – | – | – | > 100 µM | – | > 100 | – | > 100 | – | > 100 |
| N#CC(C(=N/O)/C(=N\O)C(C#N)c1ccccc1)c1ccccc1 (stereo unspecified) | – | > 100 | – | > 100 | – | > 100 | – | > 100 | – | > 100 | – | – | – | > 100 µM | – | > 100 | – | > 100 | – | > 100 |
| CCn1cc(C(=O)N/N=C/c2cccs2)c(=O)c2cc(F)c(N3CCNC(C)C3)c(F)c21 (stereo unspecified) | 1.55 | 2.88 | 1.96 | 3.97 | 1.78 | 3.52 | – | – | 1.8 | 3.44 | 14.1 | 35.9 | – | – | – | – | – | – | 1.67 | 3.04 |
| O=C1C(Cl)=C(Cl)C(=O)N1c1cccc(C(F)(F)F)c1 | – | > 100 | – | > 100 | – | > 100 | – | > 100 | – | > 100 | – | – | – | > 85.3 µM | – | > 100 | – | > 100 | – | > 100 |
| CCC[CH2][Sn]([CH2]CCC)([O]C(=O)c1cc(F)ccc1F)[O]C(=O)c1cc(F)ccc1F | 1.16 | 2.39 | 1.58 | 2.95 | 1.12 | 2.32 | 1.56 | 2.92 | 1.43 | 2.76 | – | – | 0.257 | 1.25 µM | 1.34 | 2.65 | 1.47 | 2.81 | 1.4 | 2.7 |
| COc1cc2c3c(n([C@@H]4CCOC4)c(=O)c2cc1OC)-c1cc2c(cc1C3=O)OCO2 | < 0.01 | > 100 | – | – | 0.0193 | > 100 | – | – | – | – | > 100 | > 100 | < 0.01 | > 100 µM | 0.0132 | > 100 | < 0.01 | > 100 | – | – |
| COC(=O)c1ccc(C(=O)OC)c2nc3cc(Cl)ccc3nc12 | – | > 100 | – | > 100 | – | > 100 | – | > 100 | – | > 100 | – | – | – | > 100 µM | – | > 100 | – | > 100 | – | > 100 |
| COc1cc(C2c3cc4c(cc3[C@@H](Nc3ccc([N+](=O)[O-])cc3)C3COC(=O)[C@H]23)OCO4)cc(OC)c1O (stereo partly specified) | 0.486 | 7.96 | – | 62.4 | – | 10.1 | – | 3.1 | – | 7.01 | – | – | 0.226 | 0.967 µM and 8.1 µM | 0.981 | 11 | 0.543 | 12.7 | – | 2.82 |
| Cn1c2c(c3ccccc3c1=O)C(=O)c1ccccc1-2 | – | > 100 | – | > 100 | – | > 100 | – | > 100 | – | – | – | > 100 | – | > 100 µM | – | > 100 | – | > 100 | – | – |
| O=C(COC(=O)c1cccc2c(=O)c3ccccc3[nH]c12)Nc1ccc(Cl)cc1 | – | > 100 | – | > 100 | – | > 100 | – | > 100 | – | > 100 | – | – | – | > 100 µM | – | > 100 | – | > 100 | – | > 100 |

— PubChem BioAssay (NCI)
